Test results taken from patent US9067894B1, “Compound, composition, and method of activating GIRK potassium channel and use of same for treating conditions of interest” (Vanderbilt University, priority 2013, dated 2015).

How the values were obtained:
Format in all cases: cell-based
GIRK1/4 = target: T1, GIRK1/4 (Homo sapiens, UniProt P48544+P48549); test: Thallium flux assay protocol (Examples 2 and 3), GIRK1/GIRK4 HEK-293 cells; details: for GIRK1/4 efficacy (activator): standardized to 2 (ML297) = 100%; for EC50: triplicate determinations
T1 construct: expressed in transfected cells; host or cells: HEK-293
T1 sequence (P48549 1-501): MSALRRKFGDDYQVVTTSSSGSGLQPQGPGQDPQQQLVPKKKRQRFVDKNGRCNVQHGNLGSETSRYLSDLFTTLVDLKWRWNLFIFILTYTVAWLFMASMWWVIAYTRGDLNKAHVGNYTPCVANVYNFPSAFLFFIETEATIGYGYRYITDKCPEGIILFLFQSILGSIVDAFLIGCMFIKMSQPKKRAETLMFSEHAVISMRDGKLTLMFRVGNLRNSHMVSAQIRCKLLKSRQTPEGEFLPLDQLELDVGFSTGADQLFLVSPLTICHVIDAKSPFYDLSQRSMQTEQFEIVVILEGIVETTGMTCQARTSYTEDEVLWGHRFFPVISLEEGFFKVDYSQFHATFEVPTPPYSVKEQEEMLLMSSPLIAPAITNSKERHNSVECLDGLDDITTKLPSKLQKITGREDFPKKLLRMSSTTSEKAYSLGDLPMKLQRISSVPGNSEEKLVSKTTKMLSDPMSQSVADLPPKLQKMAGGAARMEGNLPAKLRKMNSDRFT
T1 sequence (P48544 1-419): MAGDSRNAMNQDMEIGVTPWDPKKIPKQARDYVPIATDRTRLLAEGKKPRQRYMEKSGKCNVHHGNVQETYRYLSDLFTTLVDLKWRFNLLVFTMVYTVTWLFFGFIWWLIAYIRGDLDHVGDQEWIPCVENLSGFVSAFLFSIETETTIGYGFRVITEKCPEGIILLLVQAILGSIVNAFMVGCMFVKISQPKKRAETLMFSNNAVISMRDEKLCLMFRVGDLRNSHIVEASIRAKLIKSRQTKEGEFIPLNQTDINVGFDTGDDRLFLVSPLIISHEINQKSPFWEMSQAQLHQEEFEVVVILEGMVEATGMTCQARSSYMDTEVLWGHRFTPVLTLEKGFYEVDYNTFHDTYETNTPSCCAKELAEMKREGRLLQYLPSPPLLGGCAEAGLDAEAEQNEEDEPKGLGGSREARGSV
Description: (§1) Compounds were dissolved in DMSO, transferred to 384-well polypropylene plates, and serially diluted in DMSO using and Agilent Bravo (11-points, threefold dilutions). Serially diluted plates were dispensed to daughter plates using a Labcyte Echo555 and diluted to twofold over their target assay concentration with 20 mM HEPES-buffered (pH 7.4) Hanks Balanced Salt Solution (HBSS), hereafter referred to as Assay Buffer, using a Thermo Fisher Combi. Twenty-thousand HEK-293 cells/well stably transfected with the ion channel subunits of interest (e.g., GIRK1/GIRK2, GIRK1/GIRK4) were plated into 384-well, black-walled, clear-bottom, amine-coated coated plates in 20 LL/well alpha-minimal essential medium (MEM) supplemented with 10% (v/v) fetal bovine serum and incubated overnight in a 5% CO2 incubator at 37° C. Cell culture medium was removed from cell plates and replaced with 20 LL/well Assay Buffer. Twenty microliters/well of 0.5 LM of the thallium-sensitive dye, Thallos-AM (TEFlabs, Austin Tex.) in Assay Buffer was added to cell plates. Cell plates were incubated for 60 min at room temperature and then dye-loading solution was removed from cell plates and replaced with 20 LL/well Assay Buffer. Dye loaded and washed cell plates were transferred to a Hamamatsu FDSS 6000 and a double-addition protocol was initiated. After 10s, 20 LL/well of 20 LM test compound in 0.2% DMSO and Assay Buffer was added. After 4 min 10 LL/well of a 5× sodium bicarbonate-based thallium stimulus buffer (20 mM HEPES pH 7.4, 135 mM NaHCO3, 2 mM CaSO4, 1 mM MgSO4, 5 mM glucose, 12 mM Tl2SO4) was added and 2 more minutes of data collection followed. Fluorescence data were collected at 1 Hz. Data analysis: Waveform signals (fluorescence intensity vs time normalized by dividing each fluorescence value (F) by the initial fluorescence value for each trace (F0)) were reduced to single values by subtracting the average normalized waveform from vehicle control wells from each wave on the plate followed by obtaining the slope of the change in fluorescence immediately after the addition of the thallium stimulus. Slope values were normalized as a percentage of the slope obtained by the addition of a maximally effective concentration of the GIRK activator, ML297 (e.g., an efficacy value of 100% means that the compound's maximum apparent efficacy equals that of ML297). Curve fits for normalized slope values were obtained using a four-parameter logistic equation in the Excel add-in, XLfit.

GIRK1/2 [1] = target: T2, GIRK1/2 (Homo sapiens, UniProt P48051+P48549); test: Thallium flux assay protocol (Examples 2 and 3), GIRK1/GIRK2 HEK-293 cells; design: expressed in transfected cells; host or cells: HEK-293; details: for GIRK1/2 efficacy (activator): standardized to 2 (ML297) = 100%; for EC50: triplicate determinations
T2 sequence (P48549 1-501): T1 sequence (P48549 1-501)
T2 sequence (P48051 1-423): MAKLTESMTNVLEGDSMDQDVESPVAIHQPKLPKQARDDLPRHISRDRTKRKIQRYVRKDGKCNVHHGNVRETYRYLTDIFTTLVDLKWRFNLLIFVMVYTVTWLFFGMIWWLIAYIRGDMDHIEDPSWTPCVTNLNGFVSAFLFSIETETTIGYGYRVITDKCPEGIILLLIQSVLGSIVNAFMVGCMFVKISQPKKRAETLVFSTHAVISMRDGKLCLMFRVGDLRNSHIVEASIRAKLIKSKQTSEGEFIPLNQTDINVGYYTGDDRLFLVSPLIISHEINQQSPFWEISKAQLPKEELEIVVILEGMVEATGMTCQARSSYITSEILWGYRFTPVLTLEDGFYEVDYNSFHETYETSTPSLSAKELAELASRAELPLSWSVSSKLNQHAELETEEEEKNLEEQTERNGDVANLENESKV
Description: as §1, with “Slope values were normalized as a percentage of the slope obtained by the addition of a maximally effective concentration of the GIRK activator, ML297 (e.g., an efficacy value of 100% means that the compound's maximum apparent efficacy equals that of ML297).” left out

GIRK1/2 [2] = target: T2, GIRK1/2; test: Thallium flux assay, HEK-293 cells expressing GIRK1/2; design: host or cells: HEK-293; details: confirmed GIRK activator of GIRK1/2, HTS hit; read-out: EC50
Text: Cell Line Construction and Cell Culture. HEK-293 cells co-expressing human GIRK1/2 and rat mGlu8 were generated as previously described (Niswender et al., 2008). A HEK-293 cell line (ATCC, Manassas, Va.) expressing human GIRK1 and human GIRK2 was constructed by transfecting HEK-293 cells with GIRK1 and GIRK2 (Origene, Rockville, Md.) cloned into the pBudCE4.1 vector (Life Technologies, Carlsbad, Calif.) using FuGene 6 (Promega, Madison, Wis.) transfection reagent. Unless otherwise noted, other ion channel-expressing cells were prepared by transfecting HEK-293 cells with individual or combinations of subunits: GIRK1, pCMV6-A-BSD; GIRK2, pCMV6-A-puro; GIRK3, pCMV6-A-hygro; GIRK4, pCMV6-A-AC; Kv7.4, pIRESneo3. The Kir2.1 and hERG-expressing cell lines were made by transfecting T-REx-293 cells (Life Technologies, Carlsbad, Calif.) with Kir2.1 and Kv11.1, respectively, cloned into pcDNA5TO. Monoclonal cell lines were produced by limiting-dilution cloning of antibiotic-resistant cells and functional selection using the thallium flux assay described below. Unless otherwise noted, cells were maintained in Minimal Essential Medium, Alpha Medium (Mediatech, Manassas, Va.) supplemented with 10% fetal bovine serum (Sigma-Aldrich, Saint Louis, Mo.) and GlutaGro (Mediatech, Manassas, Va.), referred to henceforth as cell culture medium. […]

Structure (SMILES): Cc1ccc(NC(=O)Cc2ccccc2Br)cc1S(=O)(=O)N(C)C [3a]
- GIRK1/4 efficacy (activator) (GIRK1/4): 114%
- GIRK1/2 efficacy (activator) (GIRK1/2 [1]): 108%

Structure (SMILES): Cc1cc(NC(=O)Nc2ccc(F)c(F)c2)n(Cc2ccccc2)n1 [5d]
- GIRK1/4 efficacy (activator) (GIRK1/4): 99%
- GIRK1/2 efficacy (activator) (GIRK1/2 [1]): 87%

Structure (SMILES): Cc1ccc(NC(=O)Nc2ccc(C(F)(F)F)cc2)cc1S(=O)(=O)N(C)C [6h]
- EC50 (GIRK1/2 [1]; Table 3, analogs 6 (ureas)): 15 µM
- GIRK1/2 efficacy (activator) (GIRK1/2 [1]): 26%

Structure (SMILES): COc1ccc(OC)c(NC(=O)Nc2ccc(C)c(S(=O)(=O)N(C)C)c2)c1 [6i]
- activity at GIRK1/4 (in words) (GIRK1/4): inactive
- activity at GIRK1/2 (in words) (GIRK1/2 [1]): inactive

Structure (SMILES): Cc1ccc(NC(=O)Nc2cccc(C#N)c2)cc1S(=O)(=O)N(C)C [6j]
- EC50 (GIRK1/4; Table 3, analogs 6 (ureas)): 3.3 µM

Structure (SMILES): CC(C)(C)c1cccc(NC(=O)Cc2ccccc2Cl)c1 [8b]
- EC50 (GIRK1/4; Table 4, analogs 8): 2.7 µM
- EC50 (GIRK1/2 [1]; Table 4, analogs 8): 5.9 µM

Structure (SMILES): O=C(Cc1ccccc1Cl)Nc1cccc(OC(F)F)c1 [8c]
- EC50 (GIRK1/4; Table 4, analogs 8): 7.8 µM

Structure (SMILES): O=C(Cc1ccccc1Cl)Nc1cc(Cl)cc(C(F)(F)F)c1 [8d]
- EC50 (GIRK1/4; Table 4, analogs 8): > 10 µM
- EC50 (GIRK1/2 [1]; Table 4, analogs 8): > 10 µM

Structure (SMILES): O=C(Cc1ccccc1Cl)Nc1ccc(Cl)c(C(F)(F)F)c1 [8e]
- EC50 (GIRK1/4; Table 4, analogs 8): 0.24 µM
- GIRK1/4 efficacy (activator) (GIRK1/4): 17%
- activity at GIRK1/2 (in words) (GIRK1/2 [1]): inactive

Structure (SMILES): O=C(Cc1ccccc1Cl)Nc1cccc(Cl)c1 [8g]
- activity at GIRK1/4 (in words) (GIRK1/4): selective, partial GIRK1/4 activators
- EC50 (GIRK1/4; Table 4, analogs 8): 1.8 µM
- GIRK1/4 efficacy (activator) (GIRK1/4): 22%

Structure (SMILES): Cc1cccc(NC(=O)Cc2ccccc2Cl)c1 [8i]
- activity at GIRK1/4 (in words) (GIRK1/4): inactive
- activity at GIRK1/2 (in words) (GIRK1/2 [1]): inactive

Structure (SMILES): Cc1cc(NC(=O)Nc2ccccc2)n(-c2ccccc2)n1 [CID736191]
- EC50 (GIRK1/2 [2]): ~1 µM

Structure (SMILES): Cc1ccc(NC(=O)Cc2ccccc2Cl)cc1S(=O)(=O)N(C)C [compound 3]
- GIRK1/4 efficacy (activator) (GIRK1/4): 104%
- GIRK1/2 efficacy (activator) (GIRK1/2 [1]): 110%
